Test results from US20130165464A1, “HETEROARYLS AND USES THEREOF” (MILLENNIUM PHARMACEUTICALS, INC., priority 2011, published 2013).

Biological target: T1, VPS34 (Homo sapiens, UniProt Q8NEB9)
T1 construct: GST (N); host or cells: SF9 insect cells (baculovirus)
Assay: Human VPS34 enzyme assay (Adapta TR-FRET)
Format: biochemical
Settings: for inhibition at 1.11 µM: 1 h, at a 1.11 μM concentration, read-out: VPS34 Percent Inhibition
Description: VPS34 (accession number GB:BCO33004) was cloned into pDEST20-Thombin as N-terminal GST tagged fusion proteins using the Gateway system (Invitrogen, catalog#11804-013). The sequences were verified before recombinant protein expression using the Baculovirus Expression System with Gateway® Technology.
For expression VPS34 was infected at 1MOI in SF9 cells and harvested 72 hours post infection.
For purification, VPS34 is purified by Glutathione Sepharose 4 Fast Flow (GE Healthcare #17-5132-03) followed by HiTrap Q (GE Healthcare #17-1153-01).
Human VPS34 Enzyme Assay Method
100 nL compounds in DMSO are added to wells of a 384 well microtitre plate (Greiner 780076). At room temperature: 5 ul VPS34 reaction buffer (Invitrogen Assay Buffer Q (diluted 1 in 5 with nanopure water) plus 2 mM DTT and 2 mM MnCl2) containing ATP (20 uM, Promega) and 200 uM PI-PS substrate (Invitrogen PV5122) is added followed immediately by 5 ul VPS34 reaction buffer (as above) containing VPS34 (5 nM, Millennium Protein Sciences Group) and the mixture is incubated with shaking at room temperature for 1 hour. Then 5 ul VPS34 stop-detect mix (as per Invitrogen Adapta Assay kit (PV5009) instructions (contains kinase quench buffer, TR-FRET buffer, Adapta Eu anti-ADP antibody and Alexa Fluor 647 ADP tracer)) is added to quench the reaction. The plates are then incubated for 30 minutes at room temperature with shaking and then read on a BMG PheraStar Plus reader.
For the assay methods described above, test compound percent inhibition, at various concentrations, is calculated relative to control (DMSO and EDTA) treated samples. Compound concentration versus percent inhibition curves are fitted to generate IC50 values. One skilled in the art will appreciate that the values generated either as percentage inhibition at a single concentration or IC50 values are subject to experimental variation.

T1 sequence (Q8NEB9 whole entry): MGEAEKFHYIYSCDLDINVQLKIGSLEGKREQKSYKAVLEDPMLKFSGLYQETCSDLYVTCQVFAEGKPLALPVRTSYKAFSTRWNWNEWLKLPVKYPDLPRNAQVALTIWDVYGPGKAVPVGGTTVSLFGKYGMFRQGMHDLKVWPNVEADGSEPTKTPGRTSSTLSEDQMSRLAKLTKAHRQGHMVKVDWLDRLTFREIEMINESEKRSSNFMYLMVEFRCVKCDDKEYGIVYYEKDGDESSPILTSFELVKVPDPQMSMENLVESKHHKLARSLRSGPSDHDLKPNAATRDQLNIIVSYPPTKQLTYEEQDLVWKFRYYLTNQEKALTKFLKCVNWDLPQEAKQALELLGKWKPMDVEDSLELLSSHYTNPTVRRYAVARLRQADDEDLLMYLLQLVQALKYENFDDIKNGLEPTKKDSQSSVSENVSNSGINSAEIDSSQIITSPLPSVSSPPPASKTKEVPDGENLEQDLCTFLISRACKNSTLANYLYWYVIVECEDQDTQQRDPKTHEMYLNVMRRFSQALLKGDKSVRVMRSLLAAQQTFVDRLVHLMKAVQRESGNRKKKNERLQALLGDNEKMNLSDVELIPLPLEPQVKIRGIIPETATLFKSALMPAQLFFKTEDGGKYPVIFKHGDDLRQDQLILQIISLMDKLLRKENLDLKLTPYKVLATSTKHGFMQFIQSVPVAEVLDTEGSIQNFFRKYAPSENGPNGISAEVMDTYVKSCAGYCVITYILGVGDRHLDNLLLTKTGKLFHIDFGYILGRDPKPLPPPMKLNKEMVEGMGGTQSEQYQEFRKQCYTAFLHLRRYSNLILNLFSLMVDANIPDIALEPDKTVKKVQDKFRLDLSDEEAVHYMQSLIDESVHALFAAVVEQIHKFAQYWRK

| inhibition at 1.11 µM [%] | IC50 [nM] | SMILES |
| --- | --- | --- |
| > 99 | – | COC(=O)Nc1cc(-n2cc(C(N)=O)c(-c3cc(CN4CCCC4)ccc3Cl)c2)c(C)cn1 [I-80, methyl (4-{3-carbamoyl-4-[2-chloro-5-(pyrrolidin-1-ylmethyl)phenyl]-1H-pyrrol-1-yl}-5-methylpyridin-2-yl)carbamate] |
| > 99 | < 50 | CC(=O)Nc1cc(-n2cc(-c3nnc[nH]3)c(-c3ccccc3Cl)c2)ccn1 [I-22, N-{4-[3-(2-chlorophenyl)-4-(1H-1,2,4-triazol-3-yl)-1H-pyrrol-1-yl]pyridin-2-yl}acetamide] |
| > 99 | < 50 | CC(=O)Nc1cc(-n2cc(-c3ncc[nH]3)c(-c3ccccc3Cl)n2)c(C)cn1 [I-27, N-{4-[3-(2-chlorophenyl)-4-(1H-imidazol-2-yl)-1H-pyrazol-1-yl]-5-methylpyridin-2-yl}acetamide] |
| 85 | – | COC(=O)Nc1cc(-n2cc(C(N)=O)c(-c3ccccc3Cl)c2)c(Cl)cn1 [I-51, methyl {4-[3-carbamoyl-4-(2-chlorophenyl)-1H-pyrrol-1-yl]-5-chloropyridin-2-yl}carbamate] |
| 96 | 150 to 1000 | CC(=O)Nc1cc(-n2cc(C(N)=O)c(-c3ccccc3Cl)n2)c(C)cn1 [I-11, 1-(2-acetamido-5-methylpyridin-4-yl)-3-(2-chlorophenyl)-1H-pyrazole-4-carboxamide] |
| > 99 | < 50 | COCCOC(=O)Nc1cc(-n2cc(-c3nc[nH]n3)c(-c3ccccc3Cl)c2)c(C)cn1 [I-78, 2-methoxyethyl {4-[3-(2-chlorophenyl)-4-(1H-1,2,4-triazol-3-yl)-1H-pyrrol-1-yl]-5-methylpyridin-2-yl}carbamate] |
| > 99 | < 50 | Cc1cnc(NC(=O)C2CC2)cc1-n1cc(-c2nc[nH]n2)c(-c2ccccc2Cl)n1 [I-46, N-{4-[3-(2-chlorophenyl)-4-(1H-1,2,4-triazol-3-yl)-1H-pyrazol-1-yl]-5-methylpyridin-2-yl}cyclopropanecarboxamide] |
| > 99 | < 50 | COc1ccc(-c2nn(-c3cc(NC(C)=O)ncc3C)cc2-c2nc[nH]n2)c(Cl)c1 [I-35, N-{4-[3-(2-chloro-4-methoxyphenyl)-4-(1H-1,2,4-triazol-3-yl)-1H-pyrazol-1-yl]-5-methylpyridin-2-yl}acetamide] |
| > 99 | – | CC(=O)Nc1cc(-n2cc(C(N)=O)c(-c3ccc(Cl)cc3Cl)n2)ccn1 [I-13, 1-(2-acetamidopyridin-4-yl)-3-(2,4-dichlorophenyl)-1H-pyrazole-4-carboxamide] |
| 64 | 150 to 1000 | CC(=O)Nc1cc(-n2cc(C(N)=O)c(-c3ccccc3S(C)(=O)=O)c2)ccn1 [I-47, 1-(2-acetamidopyridin-4-yl)-4-[2-(methylsulfonyl)phenyl]-1H-pyrrole-3-carboxamide] |
| > 99 | < 50 | CC(=O)Nc1cc(-n2cc(-c3nc[nH]n3)c(-c3ccccc3Cl)n2)ccn1 [I-12, N-{4-[3-(2-chlorophenyl)-4-(1H-1,2,4-triazol-3-yl)-1H-pyrazol-1-yl]pyridin-2-yl}acetamide] |
| 75 | 150 to 1000 | CC(=O)Nc1cc(-n2cc(-c3nc[nH]n3)c(-c3ccccc3SC(F)(F)F)n2)c(C)cn1 [I-59, N-{5-methyl-4-[4-(1H-1,2,4-triazol-3-yl)-3-{2-[(trifluoromethyl)sulfanyl]phenyl}-1H-pyrazol-1-yl]pyridin-2-yl}acetamide] |
| 81 | 150 to 1000 | CC(=O)Nc1cc(-n2cc(-c3ccccc3)c(-c3nnc[nH]3)c2)c(C)cn1 [I-53, N-{5-methyl-4-[3-phenyl-4-(4H-1,2,4-triazol-3-yl)-1H-pyrrol-1-yl]pyridin-2-yl}acetamide] |
| > 99 | – | CC(=O)Nc1cc(-n2cc(-c3nc[nH]n3)c(-c3ccccc3C#N)n2)c(C)cn1 [I-52, N-{4-[3-(2-cyanophenyl)-4-(1H-1,2,4-triazol-3-yl)-1H-pyrazol-1-yl]-5-methylpyridin-2-yl}acetamide] |
| > 99 | 150 to 1000 | Cc1cnc(NC(=O)C2CC2)cc1-n1cc(C(N)=O)c(-c2cc(CN3CCCC3)ccc2Cl)c1 [I-71, 4-[2-chloro-5-(pyrrolidin-1-ylmethyl)phenyl]-1-{2-[(cyclopropylcarbonyl)amino]-5-methylpyridin-4-yl}-1H-pyrrole-3-carboxamide] |
| 23 | 1000 to 5000 | CC(=O)Nc1cc(-n2cc(-c3nc[nH]n3)c(-c3cc(CN(C)C)ccc3Cl)c2)c(C)cn1 [I-76, N-{4-[3-{2-chloro-5-[(dimethylamino)methyl]phenyl}-4-(1H-1,2,4-triazol-3-yl)-1H-pyrrol-1-yl]-5-methylpyridin-2-yl}acetamide] |
| > 99 | < 50 | COC(=O)Nc1cc(-n2cc(-c3nc[nH]n3)c(-c3ccccc3Cl)n2)ccn1 [I-17, methyl {4-[3-(2-chlorophenyl)-4-(1H-1,2,4-triazol-3-yl)-1H-pyrazol-1-yl]pyridin-2-yl}carbamate] |
| > 99 | < 50 | CC(=O)Nc1cc(-n2cc(-c3ncc[nH]3)c(-c3ccccc3Cl)n2)ccn1 [I-32, N-{4-[3-(2-chlorophenyl)-4-(1H-imidazol-2-yl)-1H-pyrazol-1-yl]pyridin-2-yl}acetamide] |
| 54 | 150 to 1000 | CC(=O)Nc1cc(-n2cc(-c3cccc(N)n3)c(-c3ccccc3Cl)n2)c(C)cn1 [I-107, N-{4-[4-(6-aminopyridin-2-yl)-3-(2-chlorophenyl)-1H-pyrazol-1-yl]-5-methylpyridin-2-yl}acetamide] |
| 29 | 1000 to 5000 | CC(=O)Nc1cc(-n2cc(-c3ccccc3Cl)c(C(N)=O)n2)ccn1 [I-20, 1-(2-acetamidopyridin-4-yl)-4-(2-chlorophenyl)-1H-pyrazole-3-carboxamide] |
| 62 | 150 to 1000 | Cc1cnc(NC(=O)C2CC2)cc1-n1cc(CO)c(-c2ccccc2Cl)n1 [I-63, N-{4-[3-(2-chlorophenyl)-4-(hydroxymethyl)-1H-pyrazol-1-yl]-5-methylpyridin-2-yl}cyclopropanecarboxamide] |
| 44 | 1000 to 5000 | O=C(O)c1cn(-c2ccnc(NCCc3ccc(O)cc3)n2)nc1-c1ccccc1Cl [I-29, 3-(2-chlorophenyl)-1-(2-{[2-(4-hydroxyphenyl)ethyl]amino}pyrimidin-4-yl)-1H-pyrazole-4-carboxylic acid] |
| 94 | 150 to 1000 | CCc1ccccc1-c1nn(-c2cc(NC(C)=O)ncc2C)cc1-c1nc[nH]n1 [I-57, N-{4-[3-(2-ethylphenyl)-4-(1H-1,2,4-triazol-3-yl)-1H-pyrazol-1-yl]-5-methylpyridin-2-yl}acetamide] |
| 97 | < 50 | COC(=O)Nc1cc(-n2cc(-c3ncc[nH]3)c(-c3ccccc3Cl)c2)c(C)cn1 [I-109, methyl {4-[3-(2-chlorophenyl)-4-(1H-imidazol-2-yl)-1H-pyrrol-1-yl]-5-methylpyridin-2-yl}carbamate] |
| 59 | 150 to 1000 | CC(=O)Nc1cc(-n2cc(-c3nnc[nH]3)c(I)n2)c(C)cn1 [I-62, N-{4-[3-iodo-4-(1H-1,2,4-triazol-3-yl)-1H-pyrazol-1-yl]-5-methylpyridin-2-yl}acetamide] |
| > 99 | – | CC(=O)Nc1cc(-n2cc(-c3nc[nH]n3)c(-c3ccccc3C(F)(F)F)n2)c(C)cn1 [I-48, N-(5-methyl-4-{4-(1H-1,2,4-triazol-3-yl)-3-[2-(trifluoromethyl)phenyl]-1H-pyrazol-1-yl}pyridin-2-yl)acetamide] |
